Key:
[1] = molecular target: nsp7 (Severe acute respiratory syndrome coronavirus 2, UniProt P0DTD1); assay: biochemical; format: binding, SARS-CoV-2
[2] = molecular target: RBD of SARS-CoV-2 spike protein (Severe acute respiratory syndrome coronavirus 2, UniProt P0DTC2); assay: biochemical; format: binding
[3] = in vivo; parameters: species or system rats; conditions: male, Sprague-Dawley, rat, po, 40 mg/kg
[4] = test system: SARS-CoV-2 pseudovirus; format: cell-based
[5] = molecular target: SARS-CoV-2 spike protein (Severe acute respiratory syndrome coronavirus 2, UniProt P0DTC2); assay: biochemical; format: binding
[6] = molecular target: nsp8 (Severe acute respiratory syndrome coronavirus 2, UniProt P0DTD1); assay: biochemical; format: binding, SARS-CoV-2
[7] = in vivo; conditions: male, Sprague-Dawley, rat, po, 40 mg/kg
[8] = male, Sprague-Dawley, rat, in vivo
[9] = test system: Vero E6 cells; format: cell-based; conditions: CCK-8
[10] = molecular target: ACE2; conditions: read-out: KD for binding to ACE2; cited from earlier work

CC1(C)[C@@H](O)CC[C@]2(C)[C@H]3C(=O)C=C4[C@@H]5C[C@@](C)(C(=O)O)CC[C@]5(C)CC[C@@]4(C)[C@]3(C)CC[C@@H]12 [GA, glycyrrhetinic acid]
Kd [1]: 384 µM | Kd [2]: 2.33 µM | Tmax [3]: 2 h | half-life [3]: 18.2 h | inhibitory activity in blocking, attachment and entry procedures [4]: significant inhibitory activities | IC50 [5]: 10.9 µM | inhibition at 10 µM ([5]; read-out: inhibition rate against SARS-CoV-2 spike protein by ELISA): 51.9% | Kd [6]: 91.2 µM | half-life [7]: 9.91 h | maximum plasma concentration [8]: 5.68 µM

CC1(C)[C@@H](O[C@H]2O[C@H](C(=O)O)[C@@H](O)[C@H](O)[C@H]2O[C@@H]2O[C@H](C(=O)O)[C@@H](O)[C@H](O)[C@H]2O)CC[C@]2(C)[C@H]3C(=O)C=C4[C@@H]5C[C@@](C)(C(=O)O)CC[C@]5(C)CC[C@@]4(C)[C@]3(C)CC[C@@H]12 [GA-gg, glycyrrhizic acid]
binding to RBD ([2]; SPR): very weak bindings | activity in the pseudovirus system [4]: weak activities | maximum plasma concentration [8]: 10.23 µM

C=C(C)[C@@H]1CC[C@]2(C(=O)O)CC[C@]3(C)[C@H](CC[C@@H]4[C@@]5(C)CC[C@H](O)C(C)(C)[C@@H]5CC[C@]43C)[C@@H]12 [betulinic acid]
cytotoxicity [9]: remarkable cytotoxicity | IC50 [5]: 15.1 µM

C[C@H]1[C@H](C)CC[C@]2(C(=O)O)CC[C@]3(C)C(=CC[C@@H]4[C@@]5(C)CC[C@H](O)C(C)(C)[C@@H]5CC[C@]43C)[C@H]12 [ursolic acid]
cytotoxicity [9]: remarkable cytotoxicity | IC50 [5]: 9 µM

dalbavacin
Kd [10]: 0.147 µM
